Target: T1, KCNT1 (KNa1.1, Slack) (Homo sapiens, UniProt Q5JUK3)
T1 construct: expressed in transfected cells; host or cells: HEK-TREX (tetracycline-inducible HEK cell line)
T1 sequence (Q5JUK3 1-1230): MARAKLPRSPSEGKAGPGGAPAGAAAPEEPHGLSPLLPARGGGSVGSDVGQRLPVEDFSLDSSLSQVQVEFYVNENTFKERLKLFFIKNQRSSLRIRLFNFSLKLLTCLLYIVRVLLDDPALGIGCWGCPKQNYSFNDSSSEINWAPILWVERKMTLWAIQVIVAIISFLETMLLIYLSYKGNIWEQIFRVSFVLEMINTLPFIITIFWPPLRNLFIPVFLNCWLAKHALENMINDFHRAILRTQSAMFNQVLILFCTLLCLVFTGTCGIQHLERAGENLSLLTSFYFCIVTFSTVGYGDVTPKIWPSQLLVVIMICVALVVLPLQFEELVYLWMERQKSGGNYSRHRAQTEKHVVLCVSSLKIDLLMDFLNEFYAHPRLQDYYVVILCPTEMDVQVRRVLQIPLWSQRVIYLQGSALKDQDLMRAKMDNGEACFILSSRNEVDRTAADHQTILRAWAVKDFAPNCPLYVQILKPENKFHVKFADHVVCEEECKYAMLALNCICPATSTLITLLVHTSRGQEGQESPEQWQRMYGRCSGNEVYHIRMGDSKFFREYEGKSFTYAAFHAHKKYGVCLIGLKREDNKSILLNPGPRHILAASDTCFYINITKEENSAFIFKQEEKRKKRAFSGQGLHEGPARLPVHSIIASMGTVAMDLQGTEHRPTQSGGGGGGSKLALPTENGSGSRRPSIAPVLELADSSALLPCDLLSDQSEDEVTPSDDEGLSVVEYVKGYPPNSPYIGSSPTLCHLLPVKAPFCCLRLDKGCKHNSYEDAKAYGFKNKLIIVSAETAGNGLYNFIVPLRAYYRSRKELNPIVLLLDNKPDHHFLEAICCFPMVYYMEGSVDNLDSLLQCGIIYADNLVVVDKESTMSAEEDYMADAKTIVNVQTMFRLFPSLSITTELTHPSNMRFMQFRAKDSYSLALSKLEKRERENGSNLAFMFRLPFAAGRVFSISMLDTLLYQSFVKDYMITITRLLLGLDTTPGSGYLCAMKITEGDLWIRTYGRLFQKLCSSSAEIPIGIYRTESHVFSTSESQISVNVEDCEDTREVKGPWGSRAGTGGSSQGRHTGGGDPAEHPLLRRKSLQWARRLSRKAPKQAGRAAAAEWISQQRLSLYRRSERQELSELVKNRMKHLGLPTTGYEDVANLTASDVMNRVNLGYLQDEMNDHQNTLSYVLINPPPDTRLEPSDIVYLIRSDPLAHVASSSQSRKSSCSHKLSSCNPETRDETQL
Assay: KCNT1-WT-Basal patch clamp assay (SyncroPatch 384PE, HEK-TREX inducible cell line)
Type: cell-based
Details: tetracycline inducible HEK-TREX cells; perforated patch; holding -80 mV, 100 ms step to 0 mV; room temperature; read-out: KCNT1 WB IC50
Experimental: KCNT1-WT-Basal—Patch Clamp Assay
Inhibition of KCNT1 (KNa1.1, Slack) was evaluated using a tetracycline inducible cell line (HEK-TREX). Currents were recorded using the SyncroPatch 384PE automated, patch clamp system. Pulse generation and data collection were performed with PatchController384 V1.3.0 and DataController384 V1.2.1 (Nanion Technologies). The access resistance and apparent membrane capacitance were estimated using built-in protocols. Current were recorded in perforated patch mode (10 μM escin) from a population of cells. The cells were lifted, triturated, and resuspended at 800,000 cells/ml. The cells were allowed to recover in the cell hotel prior to experimentation. Currents were recorded at room temperature. The external solution contained the following (in mM): NaCl 105, NMDG 40, KCl 4, MgCl2 1, CaCl2 5 and HEPES 10 (pH=7.4, Osmolarity ˜300 mOsm). The extracellular solution was used as the wash, reference and compound delivery solution. The internal solution contained the following (in mM): NaCl 70, KF 70, KCl 10, EGTA 5, HEPES 5 and Escin 0.01 (pH=7.2, Osmolarity ˜295 mOsm). Escin is made at a 5 mM stock in water, aliquoted, and stored at −20° C. The compound plate was created at 2× concentrated in the extracellular solution. The compound was diluted to 1:2 when added to the recording well. The amount of DMSO in the extracellular solution was held constant at the level used for the highest tested concentration. A holding potential of −80 mV with a 100 ms step to 0 mV was used. Mean current was measured during the step to 0 mV. […] The average mean current from 3 sweeps was calculated and the % inhibition of each compound was calculated. The % Inhibition as a function of the compound concentration was fit with a Hill equation to derive IC50, slope, min and max parameters. If KCNT1 inhibition was less than 50% at the highest tested concentration or if an IC50 could not be calculated, then a percent inhibition was reported in place of the IC50.

| Structure (SMILES) | IC50 [nM] |
| --- | --- |
| CS(=O)(=O)c1ccc(C(=O)N[C@@H]2CCc3cc(Cl)ccc32)cc1F [Compound II-35] | ≤ 1000 |
| CS(=O)(=O)c1ccc(C(=O)N[C@@H]2CCc3cc(Cl)ccc32)c(F)c1 [Compound II-36] | 1000 to 20000 |
| NS(=O)(=O)Nc1ccc(C(=O)N[C@@H]2CCc3cc(Cl)ccc32)cc1 [Compound II-37] | 1000 to 20000 |
| O=C(N[C@@H]1CCc2cc(Cl)ccc21)c1ccc(S(=O)(=O)C(F)(F)F)cc1 [Compound II-38] | ≤ 1000 |
| O=C(N[C@@H]1CCc2cc(Cl)ccc21)c1ccc(S(=O)(=O)C2CC2)cc1 [Compound II-39] | ≤ 1000 |
| COCCS(=O)(=O)c1ccc(C(=O)N[C@@H]2CCc3cc(Cl)ccc32)cc1 [Compound II-40] | 1000 to 20000 |
| O=C(N[C@@H]1CCc2cc(Cl)ccc21)c1ccc(S(=O)(=O)C(F)F)cc1 [Compound II-42] | ≤ 1000 |
| COCCN(c1ccc(C(=O)N[C@@H]2CCc3cc(Cl)ccc32)cc1)S(C)(=O)=O [Compound II-43] | 1000 to 20000 |
| CN(C)CCN(c1ccc(C(=O)N[C@@H]2CCc3cc(Cl)ccc32)cc1)S(C)(=O)=O [Compound II-44] | 1000 to 20000 |
| CS(=O)(=O)N(CC(F)(F)F)c1ccc(C(=O)N[C@@H]2CCc3cc(Cl)ccc32)cc1 [Compound II-45] | 1000 to 20000 |
| CS(=O)(=O)N(CCOC(F)(F)F)c1ccc(C(=O)N[C@@H]2CCc3cc(Cl)ccc32)cc1 [Compound II-46] | ≥ 20000 |
| CS(=O)(=O)N(CCO)c1ccc(C(=O)N[C@@H]2CCc3cc(Cl)ccc32)cc1 [Compound II-47] | 1000 to 20000 |
| Cc1cc(C(=O)N[C@@H]2CCc3cc(Cl)ccc32)ccc1S(C)(=O)=O [Compound II-48] | 1000 to 20000 |
| CN(C)C(=O)CN(c1ccc(C(=O)N[C@@H]2CCc3cc(Cl)ccc32)cc1)S(C)(=O)=O [Compound II-49] | 1000 to 20000 |
| CS(=O)(=O)N(c1ccc(C(=O)N[C@@H]2CCc3cc(Cl)ccc32)cc1)C1COC1 [Compound II-50] | 1000 to 20000 |
| O=C(N[C@@H]1CCc2cc(Cl)ccc21)c1ccc(S(=O)(=O)CC(F)F)cc1 [Compound II-51] | 1000 to 20000 |

| Structure (SMILES) | IC50 [nM] |
| --- | --- |
| O=C(N[C@@H]1CCc2cc(Cl)ccc21)c1ccccc1O [Compound III-3] | ≤ 1000 |
| O=C(N[C@@H]1CCc2cc(Cl)ccc21)c1ccc(F)cc1O [Compound III-4] | ≤ 1000 |
| CS(=O)(=O)Nc1ccc(C(=O)N[C@@H]2CCc3cc(Cl)ccc32)c(O)c1 [Compound III-5] | ≤ 1000 |
| O=C(N[C@@H]1CCc2cc(Cl)ccc21)c1cc(F)ccc1O [Compound III-6] | ≤ 1000 |
| O=C(N[C@@H]1CCc2cc(Cl)ccc21)c1cccc(Cl)c1O [Compound III-7] | ≤ 1000 |
| O=C(N[C@@H]1CCc2cc(Cl)ccc21)c1c(O)cccc1F [Compound III-8] | 1000 to 20000 |
| O=C(N[C@@H]1CCc2cc(Cl)ccc21)c1cccc(F)c1O [Compound III-9] | ≤ 1000 |
| O=C(N[C@@H]1CCc2cc(Cl)ccc21)c1cccc(C(F)(F)F)c1O [Compound III-10] | ≤ 1000 |
| O=C(N[C@@H]1CCc2cc(Cl)ccc21)c1cc(Cl)ccc1O [Compound III-11] | ≤ 1000 |
| Cc1ccc(O)c(C(=O)N[C@@H]2CCc3cc(Cl)ccc32)c1 [Compound III-12] | ≤ 1000 |
| COc1cccc(O)c1C(=O)N[C@@H]1CCc2cc(Cl)ccc21 [Compound III-13] | 1000 to 20000 |
| COc1cccc(C(=O)N[C@@H]2CCc3cc(Cl)ccc32)c1O [Compound III-14] | ≤ 1000 |
| Cc1cccc(C(=O)N[C@@H]2CCc3cc(Cl)ccc32)c1O [Compound III-15] | ≤ 1000 |
| CC(=O)Nc1cccc(C(=O)N[C@@H]2CCc3cc(Cl)ccc32)c1O [Compound III-16] | ≤ 1000 |
| Cc1cccc(O)c1C(=O)N[C@@H]1CCc2cc(Cl)ccc21 [Compound III-17] | ≥ 20000 |

Reference: US20220280476A1, “KCNT1 INHIBITORS AND METHODS OF USE” (Praxis Precision Medicines, Inc., priority 2019, published 2022)
